We go through five molecules from patent publication US20250049841A1 (priority 2021, published 2025).

Series [1] deals with SARS-CoV-2 USA_WA1/2020 strain.
In series [2] the test system is SARS-CoV-2 USA_WA1/2020 strain. The source holds these as a separate data set.
Series [3] deals with normal, human-derived tracheal/bronchial epithelial (TBE) cells.
Protocol: (§1) Cell Culture: The EpiAirway™ Model consists of normal, human-derived tracheal/bronchial epithelial (TBE) cells which have been cultured to form a multi layered, highly differentiated model which closely resembles the epithelial tissue of the respiratory tract.
(§2) The TBE cells were grown on 6 mm mesh disks in transwell inserts. […] The cells have unique properties in forming layers, the apical side of which is exposed only to air and that creates a mucin layer. Upon arrival, the cell transwell inserts were immediately transferred to individual wells of a 6-well plate according to manufacturer's instructions, and 1 mL of MatTek's proprietary culture medium (AIR-100-MM) was added to the basolateral side, whereas the apical side was exposed to a humidified 5% CO2 environment. The TBE cells were cultured at 37° C. for one day before the start of the experiment. After the 24 h equilibration period, the mucin layer, secreted from the apical side of the cells, was removed by washing with 400 μL pre-warmed 30 mM HEPES buffered saline solution 3X. Culture medium was replenished following the wash steps.
(§3) Experimental design: Each 2× compound treatment (120 L) and virus (120 μL) was applied to the apical side, and 1× compound treatment only was applied to the basal side (1 mL), for a 2 h incubation. […]
Series [4] shares this test system. This is another data set of the same source.
Protocol: (§4) The amount of formazan is directly proportional to the number of living cells and the resulting colored solution is quantified by measuring absorbance at 450 nanometers using a multi-well spectrophotometer. Drug concentrations of 2 mg/ml and 1 mg/ml were tested in duplicate wells, and a drug concentration of 0.5 mg/ml was tested in singlet wells. On day 3 (H1N1) or day 6 (RSV), the apical side was washed one time with 400 μL pre-warmed PBS. The CCK-8 solution was added (200 L) to the apical side and incubated at 37° C. for 2 hours. The formazan (100 l) was placed into a 96-well plate and the 450 nm absorbance was recorded. Percent toxicity values were calculated as a percentage of the cell control test wells (no drug treatment) and reported as the 50% cell cytotoxic concentration (CC50) of compound (no virus). Tissues were also observed via microscopy to assess cytotoxicity.
Series [5] relates to SARS-CoV-2 USA_WA1/2020 strain. The note with it: hamster, in vivo.
The subject of series [6] is SARS-CoV-2 (strain USA-WA1/2020). Description: microbe, parasite or virus in culture. It counts as cell-based, human. The settings on record: Severe acute respiratory syndrome coronavirus 2, 120 h.
Series [7] deals with normal, human-derived tracheal/bronchial epithelial (TBE) cells. Briefly: Toxicity of test compounds in the TBE tissue model (Example 1). The settings on record: any of the test compound concentrations.
Protocol: as §1, §2, §3
The nature of the next series: in vitro. The note with it: human.
Series [8] concerns Respiratory syncytial virus (RSV-A2). Description: microbe, parasite or virus in culture. The settings on record: human respiratory syncytial virus, read-out: EC90 (VYR 90% effective concentration).
Series [9] shares this test system. The settings on record: for SI = CC50/EC90: RSV-A2.
Series [10] has as its system Influenza A/California/7/2009 (H1N1). The settings on record: fresh drug on days 1 and 2; for Log10 CCID50 virus per 0.2 mL: H1N1, day 3.
For series [11] the test system is unchanged. Briefly: microbe, parasite or virus in culture. The note with it: H1N1, in Homo sapiens, read-out: EC90 (VYR 90% effective concentration).
The mark [12] stands for this setting: 200 mg/kg/d b.i.d. PO, individual animals.
Setting [13] is: 500 mg/kg/d b.i.d. PO, individual animals.

In brackets after ≈: the same amount, converted by molar mass. Several values for one entry are separate records, joined by “and”; a condition that tells them apart may be missing. Equal entries are not always repeated. Where two headings read alike, the source gives them in different places.

Protocol for in vitro: as §4

Turning to `CC(C)C(=O)OC[C@H]1O[C@@H](n2ccc(NO)nc2=O)[C@H](O)[C@@H]1O` [EIDD-2801], the “effect on lung weights” value in series [1] (200 mg/kg/d PO) is “not significantly affected”. The “effect on weight loss (percent initial body weight)” value in [1] (200 mg/kg/d PO, P<0.01 vs placebo) is “prevented weight loss”. Moreover, the “effect on oropharyngeal swab virus titers” value in series [1] (200 mg/kg/d PO, any day post-infection) is recorded as “did not reduce”. For the same molecule, the “effect on lung virus titers” value in series [1] (200 mg/kg/d PO, day 6 post-infection, P<0.0001 vs placebo) was “reduced lung virus titers”. The “effect on nasal tissue virus titers” value in series [1] (200 mg/kg/d PO, vs placebo) is “did not significantly reduce”. For the same molecule, in series [1] (setting [12]), the “Oropharyngeal swab Virus Titer, Day Post-Infection 5” value is 2.0 CCID50/mL (Log10) and <0.7 CCID50/mL (Log10) (3×) and 1.7 CCID50/mL (Log10); the “Oropharyngeal swab Virus Titer, Day Post-Infection 6” value was <0.7 CCID50/mL (Log10); the “Virus Titer, Lung tissue, Day 6” value is <0.7 CCID50/mL (Log10). Further, the “reduction in lung virus titers, day 3 post-infection” value in series [2] (500 mg/kg/d PO) is on record as “one”. The “effect on nasal tissue virus titers” value in series [2] (500 mg/kg/d PO, FIG. 21, once daily comparison) is recorded as “did not significantly reduce”. For the same molecule, the “effect on lung weights” value in series [2] (500 mg/kg/d PO, FIG. 22) is “did not significantly reduce”. For the same molecule, the “effect on nasal tissue virus titers, day 3 post-infection” value in [2] (500 mg/kg/d PO, FIG. 25, twice daily comparison, P<0.01) is listed as “significantly reduced”. The “effect on lung weights, Day 6” value in series [2] (500 mg/kg/d PO, FIG. 26) was “significantly affected”. In [2] (500 mg/kg/d PO, P<0.01 vs placebo), the “effect on lung virus titers, day 3 post-infection” value is “significantly reduced”. In [2] (setting [13]), the “Virus Titer, Lung tissue, Day 6” value is recorded as <0.7 CCID50/mL (Log10); the “Virus Titer, Nasal tissue, Day 6” value is <0.7 CCID50/mL (Log10) (4×) and 1.7 CCID50/mL (Log10).

As to berdazimer sodium, the toxicity entry in series [3] is “No toxicity was observed”. The “cytotoxicity, tissues observed under the microscope” value in series [4] was “no overt cytotoxicity”. Besides, the premature deaths entry in [5] is “no premature deaths were observed”. Moreover, in series [1] (hamster, in vivo, 2 mg/kg/day), the adverse events result is given as “No adverse events were observed”. For the same molecule, the deaths entry in series [2] (hamster, in vivo) was “two of the ten animals”.

`CCC(CC)COC(=O)[C@H](C)N[P@](=O)(OC[C@H]1O[C@@](C#N)(c2ccc3c(N)ncnn23)[C@H](O)[C@@H]1O)Oc1ccccc1` [Remdesivir]: the EC90 in series [6] (read-out: EC90 (Titer 1)) and in series [6] (read-out: EC90 (Titer Avg.)) was 0.0065 µg/mL (≈ 0.0108 µM) throughout.

For `CO[Si](CCCN(C)[N+]([O-])=NO)(OC)OC` [MAP3-NONOate, N, N-methylaminopropyl diazeniumdiolate trimethoxysilane], the toxicity result in series [7] was “No toxicity was observed”.

For the molecule `NC(=O)c1ncn([C@@H]2O[C@H](CO)[C@@H](O)[C@H]2O)n1` [Ribavirin], the CC50 in the series “in vitro” was greater than 100 µg/mL. This molecule also yielded a CC50 at 6 days in the series “in vitro” greater than 100 µg/mL. In addition, the results for the EC90 in series [8] and in series [11] were 5.12 µg/mL (≈ 21 µM) and 1.89 µg/mL (≈ 7.74 µM), respectively. The “EC90 (VYR 90% effective concentration)” value in series [9] amounted to 4.6 µg/mL (≈ 18.8 µM). The “SI = CC50/EC90” value in [9] (fresh drug on days 1, 2, and 5) is listed as greater than 19.54; in series [9] (fresh drug on days 1-5), greater than 21.7; in series [10] (H1N1) it was greater than 52.9. Moreover, the entries for the “Log10 CCID50 virus per 0.2 mL” value in series [10] (concentration 1 μg/ml), in series [10] (concentration 10 μg/ml) and in [10] (concentration 100 μg/ml) were 6.50 Log10 CCID50 virus per 0.2 mL, 4.00 Log10 CCID50 virus per 0.2 mL and 2.67 Log10 CCID50 virus per 0.2 mL, respectively.
